One data set deals with Staphylococcus aureus. As to the kind of experiment: Photoinactivation of Staphylococcus aureus in TC (colony forming assay). Type of data set: cell-based. As to conditions: 1 mM delta-Ala. How it is done:
(§1) In the experiments described, TC was used which had been obtained from the buffy coats of donor blood and which was suspended in plasma or in a conventional storage medium (T-sol) with approximately 40% plasma. A system fitted with xenon lamps and in which the emitted UV fraction was masked out by a window glass filter was used for the exposure. Staphylococcus (S.) epidermidis was generally used as the test bacterium. Bacteria titres were determined using a colony forming assay. These are given in “colony forming units per ml” (CFU/ml).
(§2) In the experiments on the inactivation of bacteria TC aliquots of respectively 60 ml located in PVC storage bags having a nominal volume of 500 ml were treated. After adding delta-Ala or the methyl ester of delta-Ala (see Table 1) the samples were pre-incubated for one hour at room temperature in the thrombocyte rotator and then exposed to light. In the experiments on the inactivation of leukocytes the samples were pre-incubated overnight (i.e., for approximately 16-20 h) or for 4 hours. The light energy deposited in the samples is given in kilojoules per m^2 (kJ/m^2). 3000 kJ/m^2 corresponds to an exposure time of about one hour. Each experiment was carried out at least twice.

The test system of a further data set is Yersinia enterocolitica. As to the kind of experiment: Photoinactivation of Yersinia enterocolitica in TC (colony forming assay). It is filed as cell-based. The settings on record: 1 mM delta-Ala. How it is done: as §1, §2
The subject of the next data set is Pseudomonas aeroginosa. The data set is described as follows: Photoinactivation of Pseudomonas aeroginosa in TC (colony forming assay). The settings on record: 1 mM delta-Ala. Type of data set: cell-based. How it is done: as §1, §2
A further data set deals with Serratia marescens. The data set is described as follows: Photoinactivation of Serratia marescens in TC (colony forming assay). The settings on record: 1 mM delta-Ala. Type of data set: cell-based. How it is done: as §1, §2
Another data set relates to Enterobacter cloacae. The data set is described as follows: Photoinactivation of Enterobacter cloacae in TC (colony forming assay). It is filed as cell-based. The settings on record: 1 mM delta-Ala. How it is done: as §1, §2
In the next data set the test system is thrombocytes. The data set is described as follows: Functional in-vitro properties of TC after delta-Ala and exposure to light (hypotonic shock reaction, collagen-induced aggregation). It is filed as cell-based. As to conditions: after treatment with delta-Ala and subsequent exposure to light.
The next data set deals with T lymphocytes. The data set is described as follows: Photoinactivation of T lymphocytes in TC (Con A proliferation assay, BRDU incorporation). The settings on record: pre-incubation approx. 16 h, light energy input 2000 kJ/m^2 (FIG. 5). It is filed as cell-based. How it is done: as §2
The next data set relates to Escherichia coli. The data set is described as follows: Photoinactivation of Escherichia coli in TC (colony forming assay). Type of data set: cell-based. As to conditions: 1 mM delta-Ala. How it is done:
as §1, §2

Another data set deals with S. epidermidis. As to the kind of experiment: Photoinactivation of S. epidermidis in TC (colony forming assay). Type of data set: cell-based, Staphylococcus epidermidis. The settings on record: for Bacteria titre after light, Exp. 1 / Bacteria titre after light, Exp. 2: compound 2 mM, light energy input 3000 kJ/m^2. How it is done: as §1, §2
In order to determine the quantity of light sufficient to largely inactivate S. epidermidis, i.e., by at least 2 log10 grades, the following experiments were carried out: 1000 to 1500 CFU/ml S. epidermidis was added to TC, either in storage medium having a plasma content of approximately 40% or in plasma; delta-Ala was then added in a concentration of 0.25 mM (plasma-reduced TC) or 1 mM (TC with approximately 100% plasma). After pre-incubating for one hour at room temperature, the samples were exposed to different amounts of light. The results are plotted in FIGS. 3 and 4.

The mark [1] stands for this setting: after exposure, 1500 kJ/m^2, average of two experiments.
Where [2] appears, read: before exposure, average of two experiments.

Molecules are shown by their SMILES.

As to `NCC(=O)CCC(=O)O` [Delta-Ala, 6-aminolevulinic acid], the “Reduction of infectious titre” value was ~97% with Staphylococcus aureus (1500 kJ/m^2) and “approximately 95%” in the data set with Enterobacter cloacae (1500 kJ/m^2). Besides, the “Bacteria titre after exposure” value came out at 51 CFU/ml in the data set with Staphylococcus aureus (setting [1]); 1 CFU/ml with Yersinia enterocolitica (setting [1]); 1 CFU/ml in the data set with Pseudomonas aeroginosa (setting [1]); 1 CFU/ml with Serratia marescens (setting [1]); 1280 CFU/ml with Enterobacter cloacae (setting [1]); 3 CFU/ml with Escherichia coli (setting [1]). Also, in the data set with S. epidermidis (TC, 1 mM delta-Ala, after exposure, 1500 kJ/m^2, average of two experiments), the “Bacteria titre after exposure” value is 2 CFU/ml. Moreover, the “Bacteria titre before exposure” value in the data set with Staphylococcus aureus (setting [2]) worked out at 2000 CFU/ml; in the data set on Yersinia enterocolitica (setting [2]) it was 4650 CFU/ml; in the data set with Pseudomonas aeroginosa (setting [2]), 700 CFU/ml; with Serratia marescens (setting [2]), 2500 CFU/ml; in the data set with Enterobacter cloacae (setting [2]) it was 24500 CFU/ml; in the data set with Escherichia coli (setting [2]) it was 11300 CFU/ml. The “Bacteria titre before exposure” value with S. epidermidis (TC, 1 mM delta-Ala, before exposure, average of two experiments) came out at 2440 CFU/ml. Also, the “Functional in-vitro properties of TC and other thrombocyte parameters after treatment” value in the data set with thrombocytes is listed as “had not changed”. Further, in the data set with T lymphocytes, the “Required concentration of delta-Ala for photoinactivation of T lymphocytes” value is “higher than 1 mM”. For the same molecule, in the data set on S. epidermidis (TC in 100% plasma), the “Bacteria titre after light, Exp. 1” value came to 5 CFU/ml. Besides, in the data set with S. epidermidis (TC in 100% plasma), the “Bacteria titre after light, Exp. 2” value is 3.5 CFU/ml. Further, the “delta-Ala concentration sufficient for inactivation” value in the data set on S. epidermidis (plasma-reduced TC, light energy input 3000 kJ/m^2 (FIG. 2)) is ≤ 0.1 mM. Also, the “Light energy to be irradiated for extensive inactivation of the bacteria” value in the data set on S. epidermidis (thrombocytes suspended in 100% plasma, 1 mM delta-Ala, pre-incubation one hour (FIG. 4)) was “approximately 3000 kJ/m^2”.
For `COC(=O)CCC(=O)CN` [Methyl-Ala, delta-Ala methyl ester], the “Efficacy of inactivation of S. epidermidis compared with delta-Ala” value in the data set on S. epidermidis (TC in 100% plasma, 2 mM, 3000 kJ/m^2 (Table 1)) is given as “the same efficacy”. In the data set on S. epidermidis (TC in 100% plasma), the “Bacteria titre after light, Exp. 1” value came to 1.5 CFU/ml and the “Bacteria titre after light, Exp. 2” value was 4 CFU/ml.

The values above are taken from US20050009913A1, “Method for inactivating bacteria and leukocytes in thrombocyte suspensions” (priority 2001, published 2005).
